Results on three compounds are retold here after patent US20170246137A1, “SULFESTROL FOR TREATING CANCER” (CHAMAELEO PHARMA BVBA, priority 2012, published 2017).

One may read the IC50 as the concentration that inhibits the measured activity by half. High values mean weaker potency, low ones greater potency. A word on the half-life: it is the time in which the quantity being followed falls by half.

One series relates to DU-145. Description: In vitro direct cytotoxicity, Cell titer Blue viability, 72 hrs. The class given is cell-based. On the procedure: (§1) Cells were harvested, washed, re-suspended into growth medium and counted.
(§2) Stocks of all compounds were then serially diluted. […] Positive control was Taxotere. Taxotere was diluted in 100% DSMO to give a stock concentration of 1 mM. Stock was serially diluted. Final concentrations to which cells were exposed were 1000, 333.3, 111.1, 37.0, 12.3, 4.1, 1.4, 0.5, and 0.2 nM.
Background: Resazurin is reduced to fluorescent resorufin, in cell work by metabolically active cells.

Another series concerns LNCaP. Described as above. Type of series: cell-based. The method, then: as §1, §2
The nature of series [1]: In vitro metabolism in human liver microsomes (STS and CYP). Particulars: for Contribution to metabolism / Half-life / half-life at 5 μM: 5 μM; for half-life at 5 μM: human, liver microsomes. The class given is in vitro ADME. The method, then: In vitro metabolism pathways of DES, Mono-Sulfestrol and Di-Sulfestrol in human liver microsomes were investigated.
Special emphasis was put on desulfatation by steroid sulfatase (STS) and oxidation by cytochrome P (CYP) metabolism. Liver microsomes (Celsis in vitro Technologies) were used at a concentration of 0.5 mg/ml in a volume of 600 μl phosphate buffer pH 7.4. Estrone-3-sulfate was used as positive control.
5 μM of each compound (test and control compound) was added to the liver microsomes and the mixture was incubated at 37° C. for 5, 10, 20, 30, 50, 90 and 120 minutes. After incubation, aliquots of 45 μl were taken which were subsequently quenched with 150 μl ice cold methanol. Aliquots were incubated ≧1 h at −20° C. for protein precipitation. After precipitation, samples were centrifuged and remaining supernatant was used for analysis with LC-MS/MS. Half life of the compounds, speed of metabolism or intrinsic clearance (Clint), and contribution to metabolism of CYP and STS metabolism were calculated based on the data obtained at each time point.
(In general: Microsomes from liver hold many membrane-bound enzymes, among them those of drug oxidation.)

In another series the test system is MCF7. Description: In vitro direct cytotoxicity, Cell titer Blue viability, 72 hrs. Particulars: MCF7. On the procedure:
(§3) Cells were maintained in vitro in RPMI 1640 containing 10% (v/v) heat inactivated FBS and 2 mM L-glutamine (growth media) at 37° C. in 5% CO2 and humidified conditions. Cells were harvested, washed, resuspended into growth medium and counted. The cells were re-suspended into assay media (RPMI 1640+1% (v/v) heat inactivated FBS+ and 2 mM L-glutamine) at 0.5-1×10^5 cells/ml (dependent upon cell type) and plated into 96-well assay plates (Corning, black-wall plates) in 50 ul/well aliquots.
(§4) Plates were incubated overnight at 37° C. in 5% humidified CO2 prior to addition of the compounds. […] Stocks of all compounds were then serially diluted. Final concentrations to which cells were exposed were 300, 150, 75, 37.5, 18.75, 9.4, 4.7, 2.3, 1.2, 0.6 μM. Positive control was Cisplatin. Cisplatin was diluted in 1% FBS media to give a stock concentration of 1 mM. Cisplatin stock was then serially diluted. Final concentrations to which cells were exposed were 100, 50, 25, 12.5, 6.3, 3.1, 1.6, 0.8, 0.4, 0.2 μM.
(§5) Plates were incubated for 72 hrs at 37° C. in 5% humidified CO2 after addition of the compounds. Viability of the cells was assessed with the Cell titer Blue™ (Promega) assay. 10 μl of Cell titer Blue™ reagents was added to each test/blank well. Plates were incubated 3 h at 37° C. in 5% humidified CO2 prior to analysis. Fluorescence was measured with a Flex II station plate reader. Excitation wavelength was 570 nm, emission wave length was 600 nm, cut off was 590 nm. Raw data was processed by GraphPad Prism to calculate mean, standard deviation and IC50 values.

For the next series, the system named is MDA-MB-231. The series is described as above. The following applies: MDA-MB231. On the procedure: as §3, §4, §5
In series [2] the test system is platelet-rich plasma (PRP). As to the kind of experiment: Platelet-aggregation-inducing effects in platelet-rich plasma, absorbance 630 nm. The class given is cell-based. Particulars: 7 minutes, human PRP. The method, then: Blood necessary to generate PRP was obtained from 4 healthy human volunteers. 100 ml of fresh venous blood from each donor was isolated directly into tubes containing 1/10th volume of the anti-coagulant Tri-Sodium Citrate (3.2% w/v). The blood and anti-coagulant were immediately mixed and the final concentration of Tri-Sodium Citrate was 0.0106 M.
PRP was prepared by centrifugation of anti-coagulated blood at 180 g for 10 minutes at room temperature. The cloudy yellow supernatant containing the platelets was removed and placed into a clean polypropylene tube. Platelet-poor plasma (PPP) was prepared by centrifuging the remaining sample at 1,200 g for 20 minutes at room temperature. The PRP was adjusted to a suitable platelet count and absorbance at 630 nm by addition of PPP.
All three compounds were dissolved in 100% DMSO to give a stock concentration of 60 mM. […] […] 100 nM gamma thrombin (Cambridge bioscience) was used as control for platelet aggregation. 90 μl aliquots of PRP were added to 96 wells plates. A baseline absorbance reading was taken at 630 nm. 5 μl of the compounds and gamma thrombin control was added to the appropriate PRP.
The plates were incubated at room temperature for 7 minutes on a plate shaker with continuous shaking. A second A630 nm reading was made after the 7 minutes incubation to measure any platelet aggregation induced by the compounds.

Series [3] can be described thus: Estrogenic activity: body weight and plasma cholesterol levels. The class given is in vivo, male Sprague-Dawley rats. The following applies: for Mean bodyweight: in g (unit assumed). The method, then: Estrogenic activity was determined by measuring body weight and plasma cholesterol levels.
Each animal was dosed three times a day with vehicle or test compound (1st dose 7:30-8:00, 2nd dose 12:30-13:00, 3rd dose 17:00-17:30) for 14 consecutive days.
After 14 days treatment, blood was collected from the animals via cardiac puncture 4 hrs past final dosing to analyze plasma cholesterol levels. The blood was immediately transferred to a tube containing 0.5M EDTA anticoagulant. It was mixed gently and centrifuged at 1000×g at 4° C. for 15 min. Plasma was aspirated from the centrifuged blood samples, quick frozen on dry ice and stored at −80° C. for later use.
Plasma cholesterol levels were determined using a commercial ELISA kit obtained from NovaTeinBio (BG-RAT11262). Standard protocol accompanied by the kit was used without any adjustments.

For series [4] the following is noted: patients suffering from prostate cancer, 5 mg p.o. per day; cited from earlier work.
Series [5] has as its system MCF-7 breast cancer cells. The following applies: cited from earlier work.
In series [6] the test system is DU-145 prostate cancer cells. The following applies: cited from earlier work.
The next series relates to prostate cancer cells. The following applies: cited from earlier work.
Where [7] appears, read: + NADPH + 667-Coumate (STS inactive, CYP active).
The mark [8] stands for this setting: nothing added (STS active, CYP inactive).

SMILES strings stand for the structures.

Regarding `CC(=O)O[C@@]12CO[C@@H]1C[C@H](O)[C@@]1(C)C(=O)[C@H](O)C3=C(C)[C@@H](OC(=O)[C@H](O)[C@@H](NC(=O)OC(C)(C)C)c4ccccc4)C[C@@](O)([C@@H](OC(=O)c4ccccc4)[C@H]21)C3(C)C` [Taxotere, reference compound], the IC50 in the series with DU-145 (Homo sapiens, DU-145, hormone-independent prostate cancer cell line, 72 hrs) came to 4 nM; in the series on LNCaP (Homo sapiens, hormone-dependent prostate cancer cell line, 72 hrs), 2 nM.

On to `C[C@]12CC[C@@H]3c4ccc(OS(=O)(=O)O)cc4CC[C@H]3[C@@H]1CCC2=O` [E-3-S, Estrone-3-sulfate], for which the results for the Contribution to metabolism in [1] (setting [7]) and in series [1] (setting [8]) were 19% and 44%, respectively. Besides, the Half-life in [1] (setting [7]) is listed as 62 min; in series [1] (setting [8]), 27 min.

Take `CC/C(=C(/CC)c1ccc(O)cc1)c1ccc(O)cc1` [DES, diethylstilbestrol, reference compound]: the “cytotoxicity in vitro (in words)” value in the series on DU-145 (DU-145), in the series on LNCaP, in the series with MCF7 and in the series with MDA-MB-231 was “cytotoxic” throughout. Moreover, the “Absorbance (630 nm)” value in series [2] (2.3 μM, high absorbance = low aggregation) was determined as 0.264 ± 0.030; in [2] (4.7 μM), 0.266 ± 0.031; in [2] (9.4 μM), 0.264 ± 0.030; in [2] (18.75 μM), 0.264 ± 0.030; in series [2] (37.5 μM), 0.264 ± 0.030; in series [2] (75 μM), 0.268 ± 0.032. Moreover, the “Absorbance (630 nm)” value in [2] (150 μM) was determined as 0.263 ± 0.033. Moreover, in series [1], the “metabolism pathway in human liver microsomes (in words)” value is on record as “only processed by CYP metabolism”. Moreover, the Contribution to metabolism in [1] (setting [7]) was 131%; in series [1] (setting [8]), 9%. The half-life at 5 μM in series [1] (pH 7.4, + NADPH (STS and CYP active)) was determined as 18 min; in series [1] (pH 7.4, nothing added (STS active, CYP inactive)), 194 min; in series [1] (pH 7.4, with 667-Coumate (STS inhibitor; concentration not stated), + NADPH + 667-Coumate (STS inactive, CYP active)) it was 14 min. Further, the Mean bodyweight amounted to 382 ± 7.8 in series [3] (Day 0, DES 1.5 mg/kg per day, Di-Sulfestrol 3 mg/kg per day, three doses a day); 379 ± 9.3 in series [3] (Day 2); 361 ± 8.6 in series [3] (Day 4); 350 ± 8.0 in series [3] (Day 6); 342 ± 8.0 in [3] (Day 8); 341 ± 7.8 in [3] (Day 10). In addition, the Mean bodyweight was determined as 337 ± 8.4 in [3] (Day 12) and 339 ± 9.80 in series [3] (Day 14). For the same compound, the “Cholesterol (plasma)” value in series [3] (after 14 days treatment, 4 hrs past final dosing, DES 1.5 mg/kg per day, Di-Sulfestrol 3 mg/kg per day) is listed as 14.9 ± 0.724 nmol/L. Further, the “estrogenic activity in rats (in words)” value in series [3] (lowering body weight and cholesterol levels) is recorded as “show estrogenic activity”. In addition, the “increase of non-cancer related deaths, mostly cardiovascular” value in series [4] is 36%. For the same compound, the “effect on cell growth in vitro (in words)” value in series [5] is reported as “reduced cell growth in vitro”. In addition, the “cytotoxic effects (in words)” value in [6] is “cytotoxic effects”. In the series with prostate cancer cells, the “concentrations that do not influence prostate cancer cell growth” value is recorded as “up to 100 ng/ml”. Besides, the “minimal concentration to induce cytotoxic effects” value with prostate cancer cells is 1 µg/mL.
